This assay has as its system CD2F1 mice, L1210 leukemia ip, survival T/C. As to the kind of experiment: NCI In Vivo Anticancer Drug Screen. Data for tumor model L1210 Leukemia (intraperitoneal) in CD2F1 (CDF1) mice. The settings on record: higher = longer survival. An outline of the steps:
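Tumor-bearing mice (transplanted tumor) were split into treated and vehicle control groups, and the measured endpoint of each treated group was divided by that of its vehicle controls.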

[1] abbreviates: endpoint: mean survival time, dose: 200.0 mg/kg/injection, schedule: Q01DX009 (ip), vehicle: saline.
Setting [2] is: endpoint: mean survival time, dose: 400.0 mg/kg/injection, schedule: Q01DX009 (ip), vehicle: saline.
The mark [3] stands for this setting: endpoint: mean survival time, dose: 100.0 mg/kg/injection, schedule: Q01DX009 (ip), vehicle: saline with Tween-80.
Setting [4] is: endpoint: mean survival time, dose: 200.0 mg/kg/injection, schedule: Q01DX009 (ip), vehicle: saline with Tween-80.
Setting [5] is: endpoint: mean survival time, dose: 400.0 mg/kg/injection, schedule: Q01DX009 (ip), vehicle: saline with Tween-80.
The mark [6] stands for this setting: endpoint: mean survival time, dose: 75.0 mg/kg/injection, schedule: Q01DX001 (ip), vehicle: saline.
The mark [7] stands for this setting: endpoint: mean survival time, dose: 150.0 mg/kg/injection, schedule: Q01DX001 (ip), vehicle: saline.
Setting [8] is: endpoint: mean survival time, dose: 100.0 mg/kg/injection, schedule: Q01DX009 (ip), vehicle: saline.
Where [9] appears, read: endpoint: mean survival time, dose: 100.0 mg/kg/injection, schedule: Q04DX003 (ip), vehicle: saline.
The mark [10] stands for this setting: endpoint: mean survival time, dose: 200.0 mg/kg/injection, schedule: Q04DX003 (ip), vehicle: saline.
Where [11] appears, read: endpoint: mean survival time, dose: 100.0 mg/kg/injection, schedule: Q04DX003 (ip), vehicle: saline with Tween-80.
[12] abbreviates: endpoint: mean survival time, dose: 200.0 mg/kg/injection, schedule: Q04DX003 (ip), vehicle: saline with Tween-80.
Setting [13] is: endpoint: mean survival time, dose: 400.0 mg/kg/injection, schedule: Q04DX003 (ip), vehicle: saline with Tween-80.
[14] abbreviates: endpoint: mean survival time, dose: 100.0 mg/kg/injection, schedule: Q01DX001 (ip), vehicle: saline with Tween-80.
Where [15] appears, read: endpoint: mean survival time, dose: 200.0 mg/kg/injection, schedule: Q01DX001 (ip), vehicle: saline with Tween-80.
Setting [16] is: endpoint: mean survival time, dose: 400.0 mg/kg/injection, schedule: Q01DX001 (ip), vehicle: saline with Tween-80.
The mark [17] stands for this setting: endpoint: mean survival time, dose: 25.0 mg/kg/injection, schedule: Q01DX009 (ip), vehicle: saline with Tween-80.

Toxic doses and inconclusive results are not listed. Positions of bridges follow the written chain, without caps; N, C: chain ends. Residues, ends and D or L forms follow the SMILES beside them. Chains are numbered I, II in the order given. *: point of attachment. Bz = O=C(c1ccccc1)*

With `NC(COC(c1ccccc1)(c1ccccc1)c1ccccc1)C(=O)O` (stereo unspecified), the T/C (endpoint: mean survival time, dose: 25.0 mg/kg/injection, schedule: Q01DX009 (ip), vehicle: saline) is 103 % of control; the T/C (endpoint: mean survival time, dose: 50.0 mg/kg/injection, schedule: Q01DX009 (ip), vehicle: saline) is 113 % of control; the T/C under setting [1] was 150 % of control; the T/C (endpoint: mean survival time, dose: 300.0 mg/kg/injection, schedule: Q01DX009 (ip), vehicle: saline) was 122 % of control; the T/C under setting [2] is 111 % of control.

For `CC12CCC(O)CC1=CCC1C2CCC2(C)C1CCC21CCNP(=O)(N(CCCl)CCCl)O1` (stereo unspecified), the T/C is, setting by setting: (endpoint: mean survival time, dose: 62.5 mg/kg/injection, schedule: Q01DX001 (ip), vehicle: saline) 98 % of control; (endpoint: mean survival time, dose: 125.0 mg/kg/injection, schedule: Q01DX001 (ip), vehicle: saline) 101 % of control; (endpoint: mean survival time, dose: 250.0 mg/kg/injection, schedule: Q01DX001 (ip), vehicle: saline) 93 % of control; (endpoint: mean survival time, dose: 500.0 mg/kg/injection, schedule: Q01DX001 (ip), vehicle: saline) 97 % of control.

For `O=C(O)/C=C(/Cl)c1ccccc1`, the T/C runs as follows: under setting [3], 101 % of control; under setting [4], 91 % of control; under setting [5], 89 % of control.

As to `Cc1ccc([Si](C)(C)c2ccccc2)cc1`, the T/C is 97 % of control under setting [6] and 101 % of control under setting [7].

For the compound `O=C(c1ccccc1)C1CCCCC1`, the T/C under setting [8] is 88 % of control, the T/C under setting [1] was 97 % of control and the T/C under setting [2] was 92 % of control.

Regarding `BrCN(CBr)c1ccc2c(c1)Cc1cc(Br)ccc1-2`, the T/C is, setting by setting: under setting [9], 100 % of control; under setting [10], 101 % of control; (endpoint: mean survival time, dose: 400.0 mg/kg/injection, schedule: Q04DX003 (ip), vehicle: saline) 103 % of control.

For `CCOC(=O)c1c(C)cc(O)cc1O`, the T/C under setting [11] is 95 % of control, the T/C under setting [12] is 95 % of control and the T/C under setting [13] was 95 % of control.

On to `NS(=O)(=O)c1ccc(NC2OCC(O)C(O)C2O)cc1` (stereo unspecified), for which the T/C runs as follows: under setting [8], 103 % of control; under setting [11], 93 % of control; under setting [1], 104 % of control; under setting [12], 98 % of control; under setting [2], 103 % of control; under setting [13], 101 % of control.

For `O=C(COCC(=O)N/N=C/c1ccc(Cl)c(Cl)c1)N/N=C/c1ccc(Cl)c(Cl)c1`, the T/C is 94 % of control under setting [14], 94 % of control under setting [15] and 96 % of control under setting [16].

With `CC1=C2CCOC2=Nc2ccccc2O1`, the T/C is, setting by setting: under setting [6], 109 % of control; under setting [7], 104 % of control; (endpoint: mean survival time, dose: 300.0 mg/kg/injection, schedule: Q01DX001 (ip), vehicle: saline) 97 % of control.

Consider `Cc1ccc(C(=O)C2OC2c2ccccc2)cc1` (stereo unspecified), for which the T/C by setting is: under setting [14], 94 % of control; under setting [15], 100 % of control; under setting [16], 94 % of control.

Take `O=NN(CCCl)C(=O)Nc1cc2c3ccccc3ccc2c2ccccc12`: the T/C is, setting by setting: (endpoint: mean survival time, dose: 177.0 mg/kg/injection, schedule: Q01DX009 (ip), vehicle: saline with Tween-80) 102 % of control; (endpoint: mean survival time, dose: 265.0 mg/kg/injection, schedule: Q01DX009 (ip), vehicle: saline with Tween-80) 98 % of control; under setting [5], 102 % of control; (endpoint: mean survival time, dose: 600.0 mg/kg/injection, schedule: Q01DX009 (ip), vehicle: saline with Tween-80) 89 % of control.

With `COC(=O)C(CSSCC(NC(=O)CNC(=O)c1ccccc1)C(=O)OC)NC(=O)CNC(=O)c1ccccc1` (stereo not drawn) (I: Bz-Gly-Cys-OMe / II: Bz-Gly-Cys-OMe; disulfide I:2-II:2; configuration not given here), the T/C is, setting by setting: under setting [14], 108 % of control; under setting [3], 87 % of control; under setting [15], 102 % of control; under setting [4], 87 % of control; under setting [16], 97 % of control.

Consider `CC(=O)NC1C=C(C)C(=O)O1` (stereo unspecified), for which the T/C (endpoint: mean survival time, dose: 100.0 mg/kg/injection, schedule: Q04DX002 (ip), vehicle: saline) is 102 % of control; the T/C (endpoint: mean survival time, dose: 200.0 mg/kg/injection, schedule: Q04DX002 (ip), vehicle: saline) is 91 % of control; the T/C (endpoint: mean survival time, dose: 400.0 mg/kg/injection, schedule: Q04DX002 (ip), vehicle: saline) was 94 % of control.

As for `CCOP(=S)(OCC)OP(=S)(OCC)OCC`, the T/C (endpoint: mean survival time, dose: 4.0 mg/kg/injection, schedule: Q04DX003 (ip), vehicle: other) is 95 % of control.

`[NH2-].[NH2-].[NH2-].[NH2-].[Pt+4]`: the T/C runs as follows: under setting [17], 92 % of control; under setting [9], 98 % of control.

With `CCOC(=O)Nc1c(C)noc1NC(C)=O`, the T/C is 95 % of control under setting [3]; 94 % of control under setting [11]; 95 % of control under setting [4]; 94 % of control under setting [12]; 104 % of control under setting [5]; 94 % of control under setting [13].

For `O=C1c2ccccc2C(=O)c2c(NCCCNCCO)ccc(NCCCNCCO)c21`, the T/C (endpoint: mean survival time, dose: 12.5 mg/kg/injection, schedule: Q01DX009 (ip), vehicle: saline with Tween-80) was 104 % of control; the T/C under setting [17] was 96 % of control; the T/C (endpoint: mean survival time, dose: 50.0 mg/kg/injection, schedule: Q01DX009 (ip), vehicle: saline with Tween-80) is 102 % of control.

Regarding `Cc1c2ccccc2c(CSCC(N)C(=O)O)c2ccccc12` (stereo unspecified), the T/C was 89 % of control under setting [11], 107 % of control under setting [12] and 98 % of control under setting [13].

As to `ON1C=CC2C=CC1c1ccccc12` (stereo unspecified), the T/C reads like this: (endpoint: median survival time, dose: 50.0 mg/kg/injection, schedule: Q04DX002 (ip), vehicle: saline with Tween-80) 100 % of control; (endpoint: median survival time, dose: 100.0 mg/kg/injection, schedule: Q04DX002 (ip), vehicle: saline with Tween-80) 88 % of control; (endpoint: median survival time, dose: 200.0 mg/kg/injection, schedule: Q04DX002 (ip), vehicle: saline with Tween-80) 88 % of control.

For the compound `CCOC(=O)Nc1cc(NC(=O)OCC)cc([N+](=O)[O-])c1`, the T/C is 98 % of control under setting [3], 98 % of control under setting [4] and 106 % of control under setting [5].

Consider `[N-]=[N+]=CC(=O)NCC(=O)N/N=C/c1ccccn1`, for which the T/C is 104 % of control (endpoint: mean survival time, dose: 100.0 mg/kg/injection, schedule: Q01DX009 (ip), vehicle: saline sonified); 97 % of control under setting [11]; 104 % of control (endpoint: mean survival time, dose: 200.0 mg/kg/injection, schedule: Q01DX009 (ip), vehicle: saline sonified); 98 % of control under setting [12]; 97 % of control (endpoint: mean survival time, dose: 400.0 mg/kg/injection, schedule: Q01DX009 (ip), vehicle: saline sonified); 94 % of control under setting [13].

For the compound `O=C(O)CCCc1cc(O)c2c(c1O)C(=O)c1ccccc1C2=O`, the T/C runs as follows: (endpoint: mean survival time, dose: 50.0 mg/kg/injection, schedule: Q04DX003 (ip), vehicle: saline with Tween-80) 120 % of control; under setting [11], 104 % of control; under setting [12], 101 % of control.

`FC(F)=C(F)I`: the T/C is, setting by setting: (endpoint: mean survival time, dose: 50.0 mg/kg/injection, schedule: Q01DX009 (ip), vehicle: other) 95 % of control; (endpoint: mean survival time, dose: 100.0 mg/kg/injection, schedule: Q01DX009 (ip), vehicle: other) 103 % of control; (endpoint: mean survival time, dose: 200.0 mg/kg/injection, schedule: Q01DX009 (ip), vehicle: other) 103 % of control.

Consider `O=[N+]([O-])c1cc(Br)ccc1P(=O)(O)O`, for which the T/C (endpoint: mean survival time, dose: 50.0 mg/kg/injection, schedule: Q04DX003 (ip), vehicle: saline) is 95 % of control; the T/C under setting [9] was 96 % of control; the T/C under setting [10] was 93 % of control.

The values are drawn from PubChem BioAssay AID256 (DTP/NCI, 2004).
